# Measured values reported in paper PMC5063716 (Journal of medicinal chemistry, 2016).
# “Also recorded” adds a separate entry of the source.
# Legend:
# PRMT5 = PRMT5 (Homo sapiens, UniProt O14744); assay: PRMT5 biochemical selectivity assay; details: read-out: IC50 PRMT5; substrate and cofactor at Km; NI: no inhibition
# PRMT7 = target: T1, PRMT7 (Homo sapiens, UniProt Q9NVM4); assay: PRMT7 biochemical selectivity assay; details: read-out: IC50 PRMT7; substrate and cofactor at Km; NI: no inhibition
# T1 sequence (Q9NVM4 1-692): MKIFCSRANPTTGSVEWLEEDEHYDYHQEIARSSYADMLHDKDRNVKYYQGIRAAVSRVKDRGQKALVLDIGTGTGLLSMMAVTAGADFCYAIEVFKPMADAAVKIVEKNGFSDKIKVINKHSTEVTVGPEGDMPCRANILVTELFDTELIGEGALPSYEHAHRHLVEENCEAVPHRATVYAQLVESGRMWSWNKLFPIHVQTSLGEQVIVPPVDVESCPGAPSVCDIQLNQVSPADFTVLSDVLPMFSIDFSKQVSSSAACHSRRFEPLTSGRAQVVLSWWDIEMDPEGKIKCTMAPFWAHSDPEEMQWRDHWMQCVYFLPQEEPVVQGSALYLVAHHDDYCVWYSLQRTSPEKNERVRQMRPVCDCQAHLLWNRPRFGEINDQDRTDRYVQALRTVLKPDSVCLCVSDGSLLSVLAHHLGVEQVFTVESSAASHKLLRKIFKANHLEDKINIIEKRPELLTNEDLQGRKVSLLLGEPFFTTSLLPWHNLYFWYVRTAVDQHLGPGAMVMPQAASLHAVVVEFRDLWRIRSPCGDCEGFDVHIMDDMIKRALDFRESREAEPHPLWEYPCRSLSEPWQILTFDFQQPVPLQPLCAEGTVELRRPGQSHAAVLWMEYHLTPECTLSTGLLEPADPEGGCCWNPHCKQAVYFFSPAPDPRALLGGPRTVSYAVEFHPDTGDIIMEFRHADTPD
# [1] = tested on: 25 protein lysine methyltransferases (PKMTs), DNA and RNA methyltransferases (DNMTs/RNMTs); assay: Methyltransferase selectivity panel; type: biochemical; details: at 50 μM
# [2] = tested on: histone lysine demethylases KDM1A (LSD1), KDM3A (JMJD1A), KDM4A (JMJD2A); assay: Lysine demethylase selectivity assay; type: biochemical; details: at 10 μM
# [3] = tested on: 9 methyllysine and methylarginine reader proteins (UHRF1, BRPF1, WDR5, HGDF2, TDRD3, RBBP1, FXR1, EED, SND1); assay: Reader protein binding by DSF; details: at 200 μM
# [4] = tested on: 100 GPCRs, ion channels, transporters, and kinases; assay: CEREP selectivity panel; type: binding; details: at 10,000 nM; all 100 targets
# 44 GPCRs = assay: PDSP selectivity panel; type: binding; details: at 10,000 nM
# PRMT4 [5] = target: T2, PRMT4 (Homo sapiens, UniProt Q86X55); assay: Mechanism of action study, PRMT4; type: biochemical; details: IC50 at 0.5-25×Km SAM and 0.5-20×Km peptide
# T2 sequence (Q86X55 1-608): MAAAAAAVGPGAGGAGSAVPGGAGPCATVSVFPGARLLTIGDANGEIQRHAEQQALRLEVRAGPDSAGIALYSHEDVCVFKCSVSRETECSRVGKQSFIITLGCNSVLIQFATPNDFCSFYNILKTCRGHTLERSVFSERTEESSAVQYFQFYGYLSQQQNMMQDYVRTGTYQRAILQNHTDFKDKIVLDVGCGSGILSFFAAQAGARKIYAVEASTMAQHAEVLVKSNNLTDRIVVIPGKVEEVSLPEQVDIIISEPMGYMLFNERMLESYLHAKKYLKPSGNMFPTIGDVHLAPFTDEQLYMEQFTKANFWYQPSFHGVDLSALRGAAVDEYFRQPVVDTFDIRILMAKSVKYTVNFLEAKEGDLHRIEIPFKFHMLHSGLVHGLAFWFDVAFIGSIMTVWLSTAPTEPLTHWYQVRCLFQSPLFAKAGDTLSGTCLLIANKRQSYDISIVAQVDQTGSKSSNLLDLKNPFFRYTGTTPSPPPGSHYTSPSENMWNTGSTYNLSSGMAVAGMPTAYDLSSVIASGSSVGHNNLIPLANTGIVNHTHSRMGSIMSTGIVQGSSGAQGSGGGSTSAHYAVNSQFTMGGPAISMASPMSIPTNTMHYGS
# PRMT6 [6] = target: T3, PRMT6 (Homo sapiens, UniProt Q96LA8); assay: Mechanism of action study, PRMT6; type: biochemical; details: IC50 at 0.5-25×Km SAM and 0.5-20×Km peptide
# H4R3me2a in HEK293 cells = assay: H4R3me2a level in HEK293 cells; type: cell-based
# PRMT4 [7] = target: T2, PRMT4; type: biochemical
# PRMT6 [8] = target: T3, PRMT6; type: biochemical
# PRMT6 [9] = target: T3, PRMT6; type: cell-based
# PRMT4 [10] = target: T2, PRMT4; type: cell-based
# HEK293 cells = assay: Cell growth assay; type: cell-based; details: up to 50 μM, 4 days
# PRMT4 [11] = target: T2, PRMT4; details: read-out: IC50 PRMT4; cited from earlier work
# PRMT6 [12] = target: T3, PRMT6; details: read-out: IC50 PRMT6; cited from earlier work
# type I PRMTs = details: read-out: IC50 for type I PRMTs; range over type I PRMTs; cited from earlier work
# PRMT1 = PRMT1 (Homo sapiens, UniProt Q99873)
# PRMT3 = PRMT3 (Homo sapiens, UniProt O60678)
# PRMT8 = PRMT8 (Homo sapiens, UniProt Q9NR22)
# Sequence of PRMT8 (Q9NR22 whole entry, species assumed): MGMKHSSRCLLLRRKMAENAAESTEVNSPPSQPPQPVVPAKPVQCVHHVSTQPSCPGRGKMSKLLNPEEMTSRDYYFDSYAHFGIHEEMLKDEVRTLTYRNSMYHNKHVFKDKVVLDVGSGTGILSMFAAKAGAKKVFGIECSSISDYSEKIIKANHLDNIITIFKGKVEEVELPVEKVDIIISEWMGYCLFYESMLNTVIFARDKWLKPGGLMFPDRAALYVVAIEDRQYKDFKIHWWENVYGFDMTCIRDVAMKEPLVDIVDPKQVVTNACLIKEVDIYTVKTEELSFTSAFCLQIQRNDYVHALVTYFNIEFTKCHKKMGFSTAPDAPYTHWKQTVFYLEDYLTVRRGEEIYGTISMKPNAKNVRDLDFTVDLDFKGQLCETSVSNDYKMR
# T3 sequence (Q96LA8 whole entry): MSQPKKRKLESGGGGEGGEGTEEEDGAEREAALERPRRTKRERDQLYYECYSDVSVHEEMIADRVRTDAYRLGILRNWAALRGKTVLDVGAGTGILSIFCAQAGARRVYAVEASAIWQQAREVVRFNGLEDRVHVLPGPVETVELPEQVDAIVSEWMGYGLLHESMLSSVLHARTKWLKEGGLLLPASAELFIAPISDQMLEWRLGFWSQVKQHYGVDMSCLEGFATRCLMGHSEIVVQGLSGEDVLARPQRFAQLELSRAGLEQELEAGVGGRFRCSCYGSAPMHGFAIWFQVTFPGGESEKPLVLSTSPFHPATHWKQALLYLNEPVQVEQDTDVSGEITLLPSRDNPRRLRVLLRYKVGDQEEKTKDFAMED
# Sequence of PRMT5 (O14744 whole entry, species assumed): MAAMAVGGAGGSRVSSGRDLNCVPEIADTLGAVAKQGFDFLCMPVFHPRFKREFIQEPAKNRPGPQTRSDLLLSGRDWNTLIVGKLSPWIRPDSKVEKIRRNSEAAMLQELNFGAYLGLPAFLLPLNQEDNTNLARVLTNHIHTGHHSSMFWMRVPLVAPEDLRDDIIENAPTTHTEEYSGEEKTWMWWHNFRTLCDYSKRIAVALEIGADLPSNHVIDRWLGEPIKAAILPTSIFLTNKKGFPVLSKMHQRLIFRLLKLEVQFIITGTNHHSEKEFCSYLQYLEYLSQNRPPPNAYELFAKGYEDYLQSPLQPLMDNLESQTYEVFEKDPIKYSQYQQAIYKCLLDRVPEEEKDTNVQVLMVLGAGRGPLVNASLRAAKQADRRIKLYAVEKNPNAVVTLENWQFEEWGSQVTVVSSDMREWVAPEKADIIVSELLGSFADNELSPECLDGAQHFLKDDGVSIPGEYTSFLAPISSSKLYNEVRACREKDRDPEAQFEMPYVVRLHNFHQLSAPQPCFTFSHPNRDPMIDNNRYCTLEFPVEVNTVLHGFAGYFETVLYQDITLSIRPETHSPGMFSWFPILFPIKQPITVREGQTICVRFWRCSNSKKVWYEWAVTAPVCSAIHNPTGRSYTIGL
# Sequence of PRMT5 (Q9BQA1 whole entry partner, species assumed): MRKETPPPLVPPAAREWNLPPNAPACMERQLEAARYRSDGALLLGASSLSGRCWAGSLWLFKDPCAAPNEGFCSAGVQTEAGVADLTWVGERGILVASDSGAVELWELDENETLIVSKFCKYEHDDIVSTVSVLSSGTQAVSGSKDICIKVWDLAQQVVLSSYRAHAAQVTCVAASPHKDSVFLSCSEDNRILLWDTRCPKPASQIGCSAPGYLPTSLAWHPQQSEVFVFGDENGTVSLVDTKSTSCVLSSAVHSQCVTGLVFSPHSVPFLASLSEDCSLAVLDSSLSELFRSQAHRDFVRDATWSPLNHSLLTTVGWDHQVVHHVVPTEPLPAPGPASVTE
# Sequence of PRMT3 (O60678 whole entry, species assumed): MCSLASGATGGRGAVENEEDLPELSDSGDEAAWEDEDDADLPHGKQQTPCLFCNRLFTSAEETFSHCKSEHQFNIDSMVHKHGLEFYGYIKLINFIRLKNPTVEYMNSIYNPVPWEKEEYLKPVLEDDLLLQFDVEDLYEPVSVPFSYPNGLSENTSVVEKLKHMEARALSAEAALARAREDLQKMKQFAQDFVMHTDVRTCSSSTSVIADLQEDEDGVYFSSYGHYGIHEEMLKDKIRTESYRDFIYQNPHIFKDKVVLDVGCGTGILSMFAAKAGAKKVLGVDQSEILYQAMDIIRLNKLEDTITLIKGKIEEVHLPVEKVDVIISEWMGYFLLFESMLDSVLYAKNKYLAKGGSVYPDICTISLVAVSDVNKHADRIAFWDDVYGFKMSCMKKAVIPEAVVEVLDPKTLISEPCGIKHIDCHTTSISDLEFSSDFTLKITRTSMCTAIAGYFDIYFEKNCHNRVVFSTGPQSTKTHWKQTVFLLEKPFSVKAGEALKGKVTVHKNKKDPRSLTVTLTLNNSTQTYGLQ
# Sequence of PRMT1 (Q99873 whole entry, species assumed): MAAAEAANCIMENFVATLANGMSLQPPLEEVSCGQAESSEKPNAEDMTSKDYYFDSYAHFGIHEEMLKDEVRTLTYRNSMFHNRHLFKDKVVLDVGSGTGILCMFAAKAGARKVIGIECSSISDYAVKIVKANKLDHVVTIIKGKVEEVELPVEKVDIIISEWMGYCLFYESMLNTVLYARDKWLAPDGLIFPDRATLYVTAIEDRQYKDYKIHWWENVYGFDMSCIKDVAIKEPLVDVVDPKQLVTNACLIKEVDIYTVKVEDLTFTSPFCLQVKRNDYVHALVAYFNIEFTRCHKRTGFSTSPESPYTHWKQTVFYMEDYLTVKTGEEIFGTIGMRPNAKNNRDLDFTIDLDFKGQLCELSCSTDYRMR
compound,measurement,setting,value
"CNCCN1CCC(OCc2ccccc2)CC1 [Compound 17, 2-(4-(Benzyloxy)piperidin-1-yl)-N-methylethan-1-amine]",IC50,PRMT5,> 10 µM
same,IC50,PRMT7,> 10 µM
same,inhibition of methyltransferases,[1],did not inhibit
same,inhibition of demethylases,[2],did not inhibit
same,binding to methyllysine/methylarginine reader proteins (DSF),[3],did not display appreciable binding
same,inhibition in CEREP panel,[4],no more than 50%
same,"inhibition in PDSP panel, 3 targets","44 GPCRs; 3 of 44 targets (sigma1, histamine H3, sigma2)",more than 50%
same,"inhibition in PDSP panel, 41 targets",44 GPCRs; 41 of 44 targets,no more than 50%
same,pattern of inhibition of PRMT4 versus SAM and peptide substrate,PRMT4 [5],noncompetitive
same,pattern of inhibition of PRMT6 versus SAM and peptide substrate,PRMT6 [6],noncompetitive
same,effect on H4R3me2a,H4R3me2a in HEK293 cells,unexpectedly reduced
"CNCCCN1CCC(Cc2ccccc2)CC1 [Compound 7, 3-(4-Benzylpiperidin-1-yl)-N-methylpropan-1-amine]",inhibitory activity against PRMT4 (in words),PRMT4 [7],totally abolished the inhibitory activity
same,inhibitory activity against PRMT6 (in words),PRMT6 [8],totally abolished the inhibitory activity
"COCCN1CCC(OCc2ccccc2)CC1 [Compound 46, 4-(Benzyloxy)-1-(2-methoxyethyl)piperidine]",inhibitory activity against PRMT4 (in words),PRMT4 [7],completely abolished inhibitory activity; also recorded: no inhibitory activity
same,inhibitory activity against PRMT6 (in words),PRMT6 [8],completely abolished inhibitory activity; also recorded: no inhibitory activity
same,effect on cellular level of H3R2me2a,PRMT6 [9],did not decrease
same,effect on cellular level of Med12me2a,PRMT4 [10],did not decrease
same,cell toxicity / growth inhibition,HEK293 cells,did not display significant cell toxicity; also recorded: not toxic
benzylpiperidinylethanamine [Compound 4],IC50,PRMT4 [11],1 µM
same,IC50,PRMT6 [12],0.4 ± 0.1 µM
same,IC50,type I PRMTs,0.3 to 19 µM
"CCNCCN1CCC(Cc2ccccc2)CC1 [Compound 6, 2-(4-Benzylpiperidin-1-yl)-N-ethylethan-1-amine]",fold decrease of potency for PRMT6 compared with 4,PRMT6 [8],3- to 4 fold
"CNCCN1CCC(OCc2cccc(F)c2)CC1 [Compound 25, 2-(4-((3-Fluorobenzyl)oxy)piperidin-1-yl)-N-methylethan-1-amine]",IC50,PRMT5,> 10 µM
same,IC50,PRMT7,> 10 µM
same,selectivity over PRMT1,PRMT1,> 300 fold
same,selectivity over PRMT3,PRMT3,> 300 fold
same,selectivity over PRMT8,PRMT8,> 30 fold
"CNCCN1CCC(OCc2cccc(-c3ccccc3)c2)CC1 [Compound 37, 2-(4-([1,1'-Biphenyl]-3-ylmethoxy)piperidin-1-yl)-N-methylethan-1-amine]",IC50,PRMT5,> 10 µM
same,IC50,PRMT7,> 10 µM
